Results taken from US10576085B2, “Substituted aminopurine compounds, compositions thereof, and methods of treatment therewith” (Signal Pharmaceuticals, LLC, priority 2016, dated 2020).

Test system: Hep3B2.1-7 tumor
Assay: Orthotopic Hep3B2.1-7 hepatocellular carcinoma xenograft
Type: in vivo, SCID mice
Description: Female SCID mice were orthotopically inoculated with 2×10^6 Hep3B2.1-7 tumor cells per animal. Seven days post-inoculation the animals were randomized into treatment groups based on body weight and the treatment commenced (Study day 0). Take rate assessment of a satellite group confirmed the presence of tumor in the liver in 100% of the animals. Treatment with Compound 1 was started and Compound 1 was dosed orally, QD for 21 days. […] On the day of study termination, the tumors were removed and weighed. Individual tumor weights and the mean tumor weight±SEM of each group was plotted (FIG. 16). Percent inhibition was calculated relative to the vehicle control. P values were derived from a one-way ANOVA with a Dunnet's post-hoc analysis. ***=p<0.001.

C[C@]1(C(N)=O)CC[C@@H](n2c(Nc3c(Cl)cc(Cl)cc3Cl)nc3cnc(N[C@@H]4CCOC[C@H]4F)nc32)CC1 [Compound 1, cis-4-[2-{[(3S,4R)-3-fluorooxan-4-yl]amino}-8-(2,4,6-trichloroanilino)-9H-purin-9-yl]-1-methyl cyclohexane-1-carboxamide]
Body weight (15 mg/kg orally QD 21 days): minimal body weight loss
Body weight (30 mg/kg orally QD 21 days): significant mean body weight gain
Tumor weight compared to vehicle controls (orally, QD for 21 days): statistically significant reduction in tumor weight
